Measured values taken from US20080102120A1, “Solid Pharmaceutical Composition Comprising Valsartan” (priority 2004, published 2008).

Assay: Particle size of valsartan by laser light scattering (Malvern Mastersizer MS 2000, suspension in vegetable oil)
Format: physicochemical
Details: for average particle size: Malvern Mastersizer MS 2000 software; for % of particles in the range of 0.02-50 μm: range 0.02-50 μm; for % of particles in the range of 0.02-100 μm: range 0.02-100 μm; for size that 50% of particles were larger than (D50): volume diameter
Source text: The term “particle size” as used herein refers to the volume diameter of valsartan particles, as determined by laser light scattering using a Malvern-Mastersizer Apparatus MS 2000. D50 means that 50% of particles (V/V) have a higher volume diameter than the indicated value. The term “valsartan particle” means a particle that contains valsartan or, preferably, a particle that essentially or completely consists of valsartan. The particles to be subjected to the particle size measurement are first suspended in vegetable oil (i.e. sunflower oil) and then subjected to a size determination in a Malvern Mastersizer MS 2000 instrument. Usually, 100-800 mg of substance are dispersed in 5-8 ml of vegetable oil. No solubilizers or surfactants are used. According to manufacturer's information, the Malvern Mastersizers allow for a measurement of particle size distributions in the range of 20 nm to 2000 μm, with a precision of better than 0.5%. Particle sizes are determined by measuring the angular distribution of laser light scattered by a homogeneous suspension of particles. The size distribution is determined from the light scattering data using the theory of light scattering developed by Gustav Mie. The following examples illustrate the invention and are not intended to restrict the scope of the invention in any way. In the following examples, the water content was determined as loss on drying on a Mettler Toledo HR73 halogen moisture analyzer. The particle size was determined in a Malvern Mastersizer MS 2000, using a suspension of valsartan in vegetable oil (sunflower oil of Oljarica Kranj).

Structure (SMILES) | size that 10% of particles were larger than [μm] | size that 10% of particles were smaller than [μm] | average particle size [μm] | Particle size distribution, Volume % in range 0.01-2 μm [Volume %] | % of particles in the range of 0.02-50 μm [%] | % of particles in the range of 0.02-100 μm [%] | Particle size distribution, Volume % in range 2-5 μm [Volume %] | Particle size distribution, Volume % in range 5-10 μm [Volume %] | Particle size distribution, Volume % in range 10-20 μm [Volume %] | Particle size distribution, Volume % in range 20-50 μm [Volume %] | Particle size distribution, Volume % in range 50-100 μm [Volume %] | Particle size distribution, Volume % in range 100-150 μm [Volume %] | Particle size distribution, Volume % in range 150-800 μm [Volume %] | size that 50% of particles were larger than (D50) [μm] | % of particles in the range of 0.02-56 μm (range 0.02-56 μm as printed) [%]
CCCCC(=O)N(Cc1ccc(-c2ccccc2-c2nnn[nH]2)cc1)[C@H](C(=O)O)C(C)C [valsartan (A), N-(1-oxopentyl)-N-{4-[2-(1H-tetrazole-5-yl)phenyl]-benzyl}-L-valine] | 304.3 | 10.3 | 123 | 0.9 | 38.1 | 58.1 | 3.3 | 5.5 | 9.3 | 19.1 | 20.0 | 12.4 | 29.4 | 76.6 | 
CCCCC(=O)N(Cc1ccc(-c2ccccc2-c2nnn[nH]2)cc1)[C@H](C(=O)O)C(C)C [valsartan (C), N-(1-oxopentyl)-N-{4-[2-(1H-tetrazole-5-yl)phenyl]-benzyl}-L-valine] | 136.2 | 8.2 | 65 | 1.4 |  | 78.5 | 4.8 | 5.7 | 9.4 | 25.9 | 31.3 | 14.1 | 7.3 | 53.4 | 47.2
CCCCC(=O)N(Cc1ccc(-c2ccccc2-c2nnn[nH]2)cc1)[C@H](C(=O)O)C(C)C [valsartan (B), N-(1-oxopentyl)-N-{4-[2-(1H-tetrazole-5-yl)phenyl]-benzyl}-L-valine] | 460.8 | 34.7 | 219 | 0.7 | 15.0 | 30.0 | 1.2 | 1.0 | 2.6 | 9.5 | 15.0 | 13.1 | 56.4 | 179.1 | 
